Source: patent publication US12559506B2, “Indazole based compounds and associated methods of use” (Arvinas Operations, Inc., priority 2021, dated 2026)
Like-named read-outs stand apart in the source and are kept apart here.

Target: T1, LRRK2 (endogenous, HiBit tagged) (Homo sapiens, UniProt Q5S007)
T1 construct: endogenous in cells; host or cells: HEK293 cells with HiBit knock-in at the endogenous LRRK2 locus, stably expressing firefly luciferase
Experiment: Endogenous LRRK2 degradation assay, endogenous gene C-terminally HiBit-tagged in HEK293 cells (Nano-Glo Dual Luciferase)
Assay type: cell-based
Procedure, shortened: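 LRRK2-HiBit quantified via Nano-Glo Dual Luciferase in HEK293 knock-in cells co-expressing firefly luciferase, after 24 h exposure to compound (1 μM final top, 1:3, 11 points). Values normalised to DMSO median per plate and curve-fitted; Alamar Blue viability run alongside.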

[1] = endogenous HiBit-tagged LRRK2 in HEK293 cells, 24 hours treatment, read-out: **Endogenous WT Dmax (%)
[2] = endogenous HiBit-tagged LRRK2 in HEK293 cells, 24 hours treatment, read-out: *Endogenous WT DC50
[3] = endogenous HiBit-tagged LRRK2 in HEK293 cells, 24 hours treatment, read-out: Endogenous WT DC50
[4] = endogenous HiBit-tagged LRRK2 in HEK293 cells, 24 hours treatment, read-out: Endogenous WT Dmax
[5] = endogenous HiBit-tagged LRRK2, HEK293 cells, 24 hours, read-out: **Endogenous WT Dmax (%)
[6] = endogenous HiBit-tagged LRRK2, HEK293 cells, 24 hours, read-out: *Endogenous WT DC50

T1 sequence (Q5S007 whole entry): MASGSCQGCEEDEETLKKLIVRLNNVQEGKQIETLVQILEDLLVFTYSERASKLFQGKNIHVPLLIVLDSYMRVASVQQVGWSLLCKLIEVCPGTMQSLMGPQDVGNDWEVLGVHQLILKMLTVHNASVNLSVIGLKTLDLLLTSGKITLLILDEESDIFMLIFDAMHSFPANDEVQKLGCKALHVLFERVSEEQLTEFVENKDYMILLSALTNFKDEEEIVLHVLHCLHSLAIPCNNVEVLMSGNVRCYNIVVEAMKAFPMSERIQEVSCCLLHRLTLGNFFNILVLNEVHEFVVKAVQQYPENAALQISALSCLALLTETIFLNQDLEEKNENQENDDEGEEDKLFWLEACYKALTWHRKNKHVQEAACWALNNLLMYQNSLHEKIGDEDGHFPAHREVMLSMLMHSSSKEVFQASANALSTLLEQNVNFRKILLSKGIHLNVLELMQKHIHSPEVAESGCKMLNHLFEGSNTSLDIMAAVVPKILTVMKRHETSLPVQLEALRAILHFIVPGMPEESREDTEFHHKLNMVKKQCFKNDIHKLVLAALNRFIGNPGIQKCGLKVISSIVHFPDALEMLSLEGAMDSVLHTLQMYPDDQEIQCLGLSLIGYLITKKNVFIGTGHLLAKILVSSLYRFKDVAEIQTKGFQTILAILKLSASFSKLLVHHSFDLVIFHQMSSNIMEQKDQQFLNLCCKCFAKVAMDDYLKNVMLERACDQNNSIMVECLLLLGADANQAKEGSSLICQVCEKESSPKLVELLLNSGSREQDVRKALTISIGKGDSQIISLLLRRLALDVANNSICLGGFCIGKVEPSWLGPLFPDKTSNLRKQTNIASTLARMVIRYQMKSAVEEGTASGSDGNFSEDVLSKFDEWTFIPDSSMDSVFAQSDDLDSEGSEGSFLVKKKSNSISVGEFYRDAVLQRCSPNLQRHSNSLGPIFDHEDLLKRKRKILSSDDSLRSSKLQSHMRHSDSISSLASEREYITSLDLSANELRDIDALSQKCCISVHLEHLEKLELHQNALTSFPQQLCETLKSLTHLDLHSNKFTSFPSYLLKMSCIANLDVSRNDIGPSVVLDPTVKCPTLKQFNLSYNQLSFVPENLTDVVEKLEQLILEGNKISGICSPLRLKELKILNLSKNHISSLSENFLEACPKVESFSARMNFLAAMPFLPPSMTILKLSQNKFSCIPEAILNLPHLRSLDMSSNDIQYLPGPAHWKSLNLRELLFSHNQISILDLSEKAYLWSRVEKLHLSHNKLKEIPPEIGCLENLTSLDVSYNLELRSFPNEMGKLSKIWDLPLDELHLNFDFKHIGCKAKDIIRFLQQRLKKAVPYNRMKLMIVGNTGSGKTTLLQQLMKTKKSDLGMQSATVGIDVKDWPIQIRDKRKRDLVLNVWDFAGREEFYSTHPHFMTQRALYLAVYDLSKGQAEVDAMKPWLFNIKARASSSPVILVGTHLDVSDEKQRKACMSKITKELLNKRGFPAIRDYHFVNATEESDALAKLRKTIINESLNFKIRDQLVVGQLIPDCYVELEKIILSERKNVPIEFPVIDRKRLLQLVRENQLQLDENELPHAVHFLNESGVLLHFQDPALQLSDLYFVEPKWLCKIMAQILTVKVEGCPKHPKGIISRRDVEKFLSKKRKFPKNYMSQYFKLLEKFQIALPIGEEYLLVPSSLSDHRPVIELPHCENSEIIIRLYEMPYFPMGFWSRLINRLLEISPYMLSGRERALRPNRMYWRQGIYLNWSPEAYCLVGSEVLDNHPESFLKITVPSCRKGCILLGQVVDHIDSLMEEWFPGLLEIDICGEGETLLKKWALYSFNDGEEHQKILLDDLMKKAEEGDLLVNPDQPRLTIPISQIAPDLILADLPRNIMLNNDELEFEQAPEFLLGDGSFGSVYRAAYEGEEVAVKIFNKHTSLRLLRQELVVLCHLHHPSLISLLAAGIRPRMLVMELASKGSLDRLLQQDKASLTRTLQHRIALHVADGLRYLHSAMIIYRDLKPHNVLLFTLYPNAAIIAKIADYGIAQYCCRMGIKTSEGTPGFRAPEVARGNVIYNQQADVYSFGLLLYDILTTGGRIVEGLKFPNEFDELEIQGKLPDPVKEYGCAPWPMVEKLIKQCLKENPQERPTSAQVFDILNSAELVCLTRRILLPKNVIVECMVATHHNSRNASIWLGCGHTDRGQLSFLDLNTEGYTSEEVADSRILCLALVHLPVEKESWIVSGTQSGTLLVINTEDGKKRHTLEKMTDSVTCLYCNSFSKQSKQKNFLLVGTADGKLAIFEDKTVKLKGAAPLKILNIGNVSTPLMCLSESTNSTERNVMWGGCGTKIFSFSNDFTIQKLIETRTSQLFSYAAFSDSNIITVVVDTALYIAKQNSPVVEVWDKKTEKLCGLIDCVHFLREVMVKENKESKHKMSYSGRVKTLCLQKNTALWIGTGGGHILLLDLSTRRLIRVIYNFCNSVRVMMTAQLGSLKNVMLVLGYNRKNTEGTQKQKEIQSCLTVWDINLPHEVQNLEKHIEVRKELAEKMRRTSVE

Dmax [1] [%] | DC50 [2] [nM] | SMILES | other results
– | – | CC1(Oc2ccc3[nH]nc(-c4cc(C5CCN(CC6CCN(CC7CCN(c8ccc9c(c8)C(=O)N(C8CCC(=O)NC8=O)C9=O)CC7)CC6)CC5)ncn4)c3c2)CC1 (centres unmarked) [Compound 105, 2-(2,6-dioxo-3-piperidyl)-5-[4-[[4-[[4-[6-[5-(1-methylcyclopropoxy)-1H-indazol-3-yl]pyrimidin-4-yl]-1-piperidyl]methyl]-1-piperidyl]methyl]-1-piperidyl]isoindoline-1,3-dione] | Dmax (endogenous HiBit-tagged LRRK2 in HEK293 cells, 24 hours, read-out: **Endogenous WT Dmax (%)): 50 to 70%; DC50 (endogenous HiBit-tagged LRRK2 in HEK293 cells, 24 hours, read-out: *Endogenous WT DC50): ≥ 100 nM
50 to 70 | < 10 | C[C@@H]1CN(CC2CCN(c3cc(-c4n[nH]c5ccc(OC6(C)CC6)cc45)ncn3)CC2)C[C@H](C)N1CC1CCN(c2ccc3c(c2F)CN(C2CCC(=O)NC2=O)C3=O)CC1 (stereo partly drawn) [Compound 307, 3-[5-(4-{[(2R,6S)-2,6-dimethyl-4-[(1-{6-[5-(1-methylcyclopropoxy)-1H-indazol-3-yl]pyrimidin-4-yl}piperidin-4-yl)methyl]piperazin-1-yl]methyl}piperidin-1-yl)-4-fluoro-1-oxo-2,3-dihydro-1H-isoindol-2-yl]piperidine-2,6-dione] | –
50 to 70 | < 10 | CC1(Oc2ccc3[nH]nc(-c4cc(N5CCC(CN6CCN(C[C@H]7CCN(c8ccc9c(c8F)CN(C8CCC(=O)NC8=O)C9=O)C7)CC6)CC5)ncn4)c3c2)CC1 (stereo partly drawn) [Compound 330, 3-{4-fluoro-5-[(3R)-3-({4-[(1-{6-[5-(1-methylcyclopropoxy)-1H-indazol-3-yl]pyrimidin-4-yl}piperidin-4-yl)methyl]piperazin-1-yl}methyl)pyrrolidin-1-yl]-1-oxo-2,3-dihydro-1H-isoindol-2-yl}piperidine-2,6-dione] | –
– | – | COc1c(N2CCC(O[C@H]3CC[C@H](CN4CCN(c5cc(-c6n[nH]c7ccc(OC8(C)CC8)cc67)nc(C)n5)CC4)CC3)CC2)ccc2c1CN(C1CCC(=O)NC1=O)C2=O (some centres unmarked) [Compound 367, 3-[4-methoxy-1-oxo-5-(4-{[(1r,4r)-4-[(4-{2-methyl-6-[5-(1-methylcyclopropoxy)-1H-indazol-3-yl]pyrimidin-4-yl}piperazin-1-yl)methyl]cyclohexyl]oxy}piperidin-1-yl)-2,3-dihydro-1H-isoindol-2-yl]piperidine-2,6-dione] | DC50 [3]: < 10 nM; Dmax [4]: 50 to 70%
≥ 70 | < 10 | COc1c(N2CCN(C[C@@H]3CO[C@@H](CN4CCN(c5cc(-c6[nH]nc7ccc(OC8(C)CC8)cc67)ncn5)CC4)CO3)CC2)ccc2c1CN(C1CCC(=O)NC1=O)C2=O (some centres unmarked) [Compound 291, 3-[4-methoxy-5-(4-{[(2r,5s)-5-[(4-{6-[5-(1-methylcyclopropoxy)-2H-indazol-3-yl]pyrimidin-4-yl}piperazin-1-yl)methyl]-1,4-dioxan-2-yl]methyl}piperazin-1-yl)-1-oxo-2,3-dihydro-1H-isoindol-2-yl]piperidine-2,6-dione] | –
≥ 70 | 10 to 50 | CC1(Oc2ccc3[nH]nc(-c4cc(N5CCN(C[C@H]6CC[C@H](OC7CCN(c8c(F)cc9c(c8F)CN(C8CCC(=O)NC8=O)C9=O)CC7)CC6)CC5)ncn4)c3c2)CC1 (some centres unmarked) [Compound 286, 3-[4,6-difluoro-1-oxo-5-(4-{[(1r,4r)-4-[(4-{6-[5-(1-methylcyclopropoxy)-1H-indazol-3-yl]pyrimidin-4-yl}piperazin-1-yl)methyl]cyclohexyl]oxy}piperidin-1-yl)-2,3-dihydro-1H-isoindol-2-yl]piperidine-2,6-dione] | –
50 to 70 | < 10 | C[C@H]1CN(c2cc(-c3n[nH]c4ccc(OC5(C)CC5)cc34)ncn2)CCN1C[C@H]1CC[C@H](OC2CCN(c3ccc4c(c3F)CN(C3CCC(=O)NC3=O)C4=O)CC2)CC1 (stereo partly drawn) [Compound 348, 3-(4-fluoro-5-(4-(((1s,4r)-4-(((S)-2-methyl-4-(6-(5-(1-methylcyclopropoxy)-1H-indazol-3-yl)pyrimidin-4-yl)piperazin-1-yl)methyl)cyclohexyl)oxy)piperidin-1-yl)-1-oxoisoindolin-2-yl)piperidine-2,6-dione] | –
– | – | CC1(Oc2ccc3[nH]nc(-c4cc(N5CCC(CN6C[C@@H]7C[C@H]6CN7CC6CCN(c7ccc8c(c7F)CN(C7CCC(=O)NC7=O)C8=O)CC6)CC5)ncn4)c3c2)CC1 (stereo partly drawn) [Compound 230, 3-[4-fluoro-5-(4-{[(1S,4S)-5-[(1-{6-[5-(1-methylcyclopropoxy)-1H-indazol-3-yl]pyrimidin-4-yl}piperidin-4-yl)methyl]-2,5-diazabicyclo[2.2.1]heptan-2-yl]methyl}piperidin-1-yl)-1-oxo-2,3-dihydro-1H-isoindol-2-yl]piperidine-2,6-dione] | DC50 [3]: < 10 nM; Dmax [4]: 50 to 70%
– | – | COc1c(N2CCC(O[C@H]3CC[C@H](CN4CCN(c5cc(-c6[nH]nc7ccc(OC8(C)CC8)cc67)ncn5)CC4)CC3)CC2)ccc2c1CN(C1CCC(=O)NC1=O)C2=O (some centres unmarked) [Compound 238, 3-[4-methoxy-1-oxo-5-(4-{[(1r,4r)-4-[(4-{6-[5-(1-methylcyclopropoxy)-2H-indazol-3-yl]pyrimidin-4-yl}piperazin-1-yl)methyl]cyclohexyl]oxy}piperidin-1-yl)-2,3-dihydro-1H-isoindol-2-yl]piperidine-2,6-dione] | DC50 [3]: < 10 nM; Dmax [4]: 50 to 70%
– | – | CC1(Oc2cc3c(-c4cc(N5CCC(CN6CCN(CC7CCN(c8cc9c(cc8F)C(=O)N(C8CCC(=O)NC8=O)C9)CC7)CC6)CC5)ncn4)n[nH]c3cn2)CC1 (centres unmarked) [Compound 191, 3-[6-fluoro-5-[4-[[4-[[1-[6-[5-(1-methylcyclopropoxy)-1H-pyrazolo[3,4-c]pyridin-3-yl]pyrimidin-4-yl]-4-piperidyl]methyl]piperazin-1-yl]methyl]-1-piperidyl]-1-oxo-isoindolin-2-yl]piperidine-2,6-dione] | Dmax [5]: ≥ 70%; DC50 [6]: < 10 nM
50 to 70 | < 10 | C[C@@H]1CN(c2cc(-c3n[nH]c4ccc(OC5(C)CC5)cc34)ncn2)C[C@H](C)N1C[C@H]1CC[C@H](OC2CCN(c3ccc4c(c3F)CN(C3CCC(=O)NC3=O)C4=O)CC2)CC1 (stereo partly drawn) [Compound 352, 3-[4-fluoro-1-oxo-5-(4-{[(1r,4r)-4-{[(2R,6S)-2,6-dimethyl-4-{6-[5-(1-methylcyclopropoxy)-1H-indazol-3-yl]pyrimidin-4-yl}piperazin-1-yl]methyl}cyclohexyl]oxy}piperidin-1-yl)-2,3-dihydro-1H-isoindol-2-yl]piperidine-2,6-dione] | –
50 to 70 | < 10 | COc1c(N2CCN(C[C@H]3CC[C@H](OC4CCN(c5cc(-c6n[nH]c7cnc(OC8(C)CC8)cc67)ncn5)CC4)CC3)CC2)ccc2c1CN(C1CCC(=O)NC1=O)C2=O (some centres unmarked) [Compound 268, 3-[4-methoxy-1-oxo-5-(4-{[(1r,4r)-4-[(1-{6-[5-(1-methylcyclopropoxy)-1H-pyrazolo[3,4-c]pyridin-3-yl]pyrimidin-4-yl}piperidin-4-yl)oxy]cyclohexyl]methyl}piperazin-1-yl)-2,3-dihydro-1H-isoindol-2-yl]piperidine-2,6-dione] | –
– | – | COc1cc2c(cc1N1CCC(CN3CCC(F)(CN4CCN(c5cc(-c6[nH]nc7ccc(OC8(C)CC8)cc67)ncn5)CC4)CC3)CC1)CN(C1CCC(=O)NC1=O)C2=O (centres unmarked) [Compound 198, 3-[5-[4-[[4-fluoro-4-[[4-[6-[5-(1-methylcyclopropoxy)-2H-indazol-3-yl]pyrimidin-4-yl]piperazin-1-yl]methyl]-1-piperidyl]methyl]-1-piperidyl]-6-methoxy-1-oxo-isoindolin-2-yl]piperidine-2,6-dione] | Dmax [5]: ≥ 70%; DC50 [6]: < 10 nM
